One assay concerns T1, IKKb.
T1 construct: purchased ActivX Biosciences (KiNativ)
The assay can be described thus: KiNativ profiling in H3255 cells. The assay is classed as cell-based, human. As to conditions: 2.5 µM.

The subject of a further assay is H3255 cells. The assay can be described thus: Cell viability assay (CellTiter-Glo). The assay is classed as cell-based. As to conditions: Homo sapiens, NCI-H3255, 72 h of treatment. As for the experimental part:
(A) Dose–response curves for ZNL-0056 and osimertinib in H3255 cells following 72 h of treatment. Cell viability was assessed with CellTiter-Glo. Data are presented as the mean ± SEM (n = 4). Representative data from three independent experiments are shown. (B) Immunoblot assessment of the effect of ZNL-0056 on EGFR signaling pathway in H3255 cells after 6 h treatment. Representative blots from two independent experiments are shown. […] TEXT PRINTED IN THE PICTURE: (A) ZNL-0056: H3255: IC50 (nM): 471.3 | (A) Osimertinib: H3255: IC50 (nM): 27.76 […]
For infection of Ba/F3 cells, 2.5 mL of viral supernatant and 8 μg/mL polybrene was added to 2.5 million cells per well in six-well plates. […]
Cells were lysed in RIPA buffer (150 mM NaCl, 1.0% IGEPAL® CA-630, 0.5% sodium deoxycholate, 0.1% SDS, 50 mM Tris, pH 8.0) (Sigma, Cat# R0278) with protease inhibitor and phosphatase inhibitor (Roche). The protein concentrations were measured by BCA analysis (Thermo Fisher Scientific, Cat # PI23225). […]
or IRDye 680RD goat anti-Mouse IgG (LICOR Biosciences , Cat # 926-68070) secondary antibodies at room temperature for 1 hour. The membranes were detected on Odyssey CLx system. […]
treatment. Cell viability was determined by using CellTiter-Glo (Promega #G7571) according to the manufacturer’s instructions, measuring luminescence using an Envision plate-reader (PerkinElmer Inc.). […]

Assay [1] concerns CaMK2a, CaMK2b, CaMK2d, CaMK2g. The assay can be described thus: KiNativ profiling in H3255 cells. The assay is classed as cell-based. Particulars: 2.5 µM; Lys2; DLKPENLLLASK
As for the experimental part: (§1) H3255 cells were plated with 6.5x10^6 per condition in fresh media in 15 cm plates and treated the 80% confluency for 2 hours with DMSO or 2.5 μM of ZNL-0056. To harvest cells, plates were washed 3 times with cold PBS, then collected by scraping into 4 mL of cold PBS containing protease and phosphatase inhibitors. Cells were pelleted by centrifugation at 1350 g at 4 ℃ for 5 minutes and immediately frozen in liquid nitrogen. The frozen samples were sent to ActivX Biosciences (La Jolla, CA) for the remainder of the KiNativ profiling experiment4. […]

For another assay, the system named is T2, CDK2.
T2 construct: purchased ActivX Biosciences (KiNativ)
The assay can be described thus: KiNativ profiling in H3255 cells. The format is cell-based, human. As to conditions: 2.5 µM. As for the experimental part: as §1
(§2) Human EGFR kinase domain (residues 696-1022) with T790M and V948R mutations was cloned with an N-terminal, protease cleavable His -GST tag. Recombinant protein was expressed in SF9 insect cells using baculovirus generated from the pFastBac system (Thermo Fisher) .
(§3) Briefly, cells at a density of ~2x10^6 cells/mL were infected with 1% (v/v) virus stock and grown for ~72 hours before harvesting and freezing the cell pellet . Infected cells were lysed in buffer A (50 mM Tris pH 8.0, 500 mM NaCl, 5% glycerol, 0.5 mM Tris(2-carboxyethyl)phosphine [TCEP]), ultracentrifuged at >200,000 rcf for 1 h, and the supernatant flo wed through Ni-NTA resin by gravity. The resin was washed with buffer A supplemented with 40 mM imidazole by […]

The test system of another assay is T3, MET.
T3 construct: purchased ActivX Biosciences (KiNativ)
In words: KiNativ profiling in H3255 cells. Particulars: 2.5 µM; Activation Loop; DMYDKEYYSVHNK
The format is cell-based, human. As for the experimental part:
as §1, §2, §3

Assay [2] concerns FGFR1, FMS, PDGFRb, TYRO3. The assay can be described thus: KiNativ profiling in H3255 cells. The assay is classed as cell-based, human. As to conditions: 2.5 µM; Lys1; VAVKMLK. As for the experimental part: as §1, §2, §3
For a further assay, the system named is T4, JAK1 domain1.
T4 construct: JAK1 domain1; purchased ActivX Biosciences (KiNativ)
The assay can be described thus: KiNativ profiling in H3255 cells. The assay is classed as cell-based, human. As to conditions: 2.5 µM; Activation Loop; QLASALSYLEDKDLVHGNVCTKNLLLAR

Another assay relates to CDK11, CDK8. The assay can be described thus: KiNativ profiling in H3255 cells. The assay is classed as cell-based, human. Particulars: 2.5 µM; Lys2; DLKPANILVMGEGPER

Among the data in paper PMC11212140, “Molecular Bidents with Two Electrophilic Warheads as a New Pharmacological Modality” (ACS Central Science, 2024) are Inhibition and IC50 values, retold here.

Take `C=CC(=O)Nc1cc(Nc2nccc(-c3cn(C)c4ccccc34)n2)c(OC)cc1N(C)CCN(C)C` [Osimertinib, osimertinib, reference compound]: the Inhibition was -16.0% in the assay with IKKb (Lys1, WHNQETGEQIAIKQCR); -28.9% in the assay with IKKb (Lys2, DLKPENIVLQQGEQR); 3.2% in assay [1]; 14.1% with CDK2 (Lys1, LTGEVVALKK); 9.6% with CDK2 (Lys2, DLKPQNLLINTEGAIK); -2.3% in the assay on MET. Also, the Inhibition is on record as 0.6% in assay [2]; -25.4% with JAK1 domain1; 24.8% in the assay on CDK11, CDK8. The compound also gave a half-maximal inhibitory concentration (IC50) in the assay on H3255 cells of 27.8 nM.
On to `C=CC(=O)Nc1cc(C(=O)Nc2nc3cccc(C)c3n2[C@@H]2CCCCN(C(=O)C=C)C2)cs1` [ZNL-0056], for which the Inhibition with IKKb (Lys1, WHNQETGEQIAIKQCR) is reported as 11.2%; in the assay with IKKb (Lys2, DLKPENIVLQQGEQR), 2.0%; in assay [1], -8.1%; with CDK2 (Lys1, LTGEVVALKK), 0.6%; in the assay on CDK2 (Lys2, DLKPQNLLINTEGAIK), 13.1%; with MET it was -17.6%. Moreover, the Inhibition is on record as -17.7% in assay [2]; -24.3% in the assay with JAK1 domain1; -0.339% in the assay on CDK11, CDK8. The compound further registered an IC50 with H3255 cells of 471 nM.
